Measured values taken from PubChem BioAssay (NCI).
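Dose response: 5 concentrations. Exposure: 48 h. Format: 96-well plates. Endpoint: linear interpolation; highest concentration if not reached. GI50 marks 50% less growth. Definition used: TGI = concentration required for complete inhibition of growth.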

These compounds were tested on CAKI-1 renal (assay: inhibition of tumour cell growth, NCI panel, 48 h).

Row | Compound | TGI [µM] | GI50 [µM]
1 | CCCCNC1CCCCC[C@H]1O (stereo partly specified) | > 100 | 
2 | COc1cc(/C=C/c2ccc(OC)c(O)c2)cc(OC)c1 | 72.8 | 
3 | Cc1cc(NC(=S)SCc2ccc(F)cc2)c([N+](=O)[O-])cc1C | > 100 | 
4 | O=C(Nc1ccccc1-c1nc2ccccc2[nH]c1=O)c1ccccc1 | 86.8 | 
5 | CC1=[N+]([O-])c2ccccc2C(=O)C1=O | > 100 | 
6 | CC12OC(C(=O)C13CC3)C1C(=O)c3ccc4c(ccc5ccccc54)c3C(=O)C12 (stereo unspecified) | 41.8 | 19.7
7 | CNC(=S)/N=C(\N)N(C)C | > 100 | 
8 | CC(=O)C1Cn2c(nc3ccccc32)C[Se]1 (stereo unspecified) | 5.54 | 
9 | COc1cc(Cc2nccc3cc(OC)c(OC)cc23)c(C(C)=O)cc1OC | > 750 | > 750
10 | Nc1ccccc1C#C/C=C\C#Cc1ccccc1N | 39 | 6.86
11 | CN(C)CCC1(C2=CCCC2)CC/C(=C\c2ccc(Cl)cc2)C1=O (stereo unspecified) | 19.2 | 
12 | CC1=CC(C)(C)N=C2SC(c3ccc(N)cc3)=NN12 | > 100 | 
13 | c1cnn(CN(Cn2cccn2)Cn2cccn2)c1 | > 100 | 
14 | O=C1C2C3C=C4c5ccccc5N(c5ccccc5)C4(C2C(=O)N1c1ccc([N+](=O)[O-])cc1)[C@H]1C(=O)N(c2ccc([N+](=O)[O-])cc2)C(=O)[C@@H]31 (stereo partly specified) | > 100 | 

These compounds were tested on SK-OV-3 ovarian (assay: inhibition of tumour cell growth, NCI panel, 48 h).

Row | Compound | GI50 [µM] | TGI [µM]
15 | CC1(C)C(=O)/C(=C\c2cccnc2)C[C@]2(C)[C@H]3CC[C@@H]4[C@H]5[C@H](C(=O)/C=C/c6cccnc6)CC[C@]5(C(=O)O)CC[C@@]4(C)[C@]3(C)CC[C@@H]12 | 3.82 | 14.5
16 | COc1cc2ncnc(-n3ncc4cc(NC(=O)Nc5ccccc5)ccc43)c2cc1OC | 0.42 | 4.6
17 | COc1ccc(C(=O)c2cc(OC)c(OC)c(OC)c2)cc1/C=C/C(=O)c1ccc(F)cc1 | 17.9 | 73.1
18 | COc1ccc(C2=C(Cl)c3cc(OC)c(OC)cc3C2Cl)cc1 (stereo unspecified) |  | 34.3
19 | COc1ccc(-c2[nH]c3ccc(OC)cc3c2/C=C(\C#N)S(=O)(=O)c2ccccc2)cc1 | 0.963 | > 65.9
20 | O=c1cc(NCC(O)CN2CCCC2)n(Cc2ccccc2)c(=O)n1Cc1ccccc1 (stereo unspecified) | > 100 | > 100
21 | c1ccc(Sc2ccc(Cc3nc4cc5ccccc5cc4[nH]3)cc2)cc1 | 3.27 | > 24.8
22 | CCc1nc2cc(F)c(/C=C/C(=O)NO)cc2c(=O)n1CCc1ccccc1 | 0.263 | 0.787
23 | CC1=C(/C=C/Cl)CC(Cl)C(C)(Cl)C1 (stereo unspecified) |  | > 100
24 | COc1cc2c(cc1OCCCCC(=O)Nc1cc3c4ccccc4ccc3c3ccccc13)N=C[C@@H]1CCCN1C2=O | 34.3 | > 100
25 | C=C1C(=O)O[C@H]2[C@H]1CC/C(COC(=O)NCCCCNC(=O)OC/C1=C/CC[C@@]3(C)O[C@H]3[C@H]3OC(=O)C(=C)[C@@H]3CC1)=C\CC[C@@]1(C)O[C@@H]21 | 12.7 | 25.3
26 | COc1ccc(-c2nc3ccccn3c2/C=C/C(=O)c2cc(OC)c(OC)c(OC)c2)cc1OC | 4.92 | > 100
27 | COc1cc2c3c(n(CCCN)c(=O)c2cc1OC)-c1ccc(C#N)cc1C3=O | 12.7 | 28
28 | O=C(Nc1cc(Cl)c(Cl)cc1Cl)C(=O)C1C(=O)NC(=S)NC1=O |  | > 100
29 | CCCCC(CC)COC(=O)C[N+](C)(C)CCOC(c1ccccc1)c1ccccc1 (stereo unspecified) | 6.38 | 21.8
30 | CCOC(=O)/C(C)=C(/O)C(=O)OCC |  | > 100
31 | CCCCNC1CCCCC[C@H]1O (stereo partly specified) |  | > 100
32 | COc1cc(/C=C/c2ccc(OC)c(O)c2)cc(OC)c1 |  | 86.6
33 | Cc1cc(NC(=S)SCc2ccc(F)cc2)c([N+](=O)[O-])cc1C |  | > 100
34 | COc1ccc(C(=O)c2cc(C)c(OC)c(C)c2)cc1OC(=O)CCl | < 0.0238 | > 100
35 | O=C(Nc1ccccc1-c1nc2ccccc2[nH]c1=O)c1ccccc1 |  | 40.5
36 | CC1=[N+]([O-])c2ccccc2C(=O)C1=O |  | > 100
37 | NC(=O)c1cc(Cl)ccc1NC(=O)/C=C/c1ccccc1 | 4.3 | > 35.5
38 | CC12OC(C(=O)C13CC3)C1C(=O)c3ccc4c(ccc5ccccc54)c3C(=O)C12 (stereo unspecified) | 76.4 | > 100
